Measurements: patent US20130210042A1, “DIAGNOSTIC AND PROGNOSTIC METHOD FOR HUMAN TAUOPATHIES” (CONSIGLIO NAZIONALE DELLE RICERCHE, priority 2010, published 2013)
Read-outs that look alike come from different tables or passages of the source. Peptide text beside a SMILES is read from it. * marks the point of attachment. Cbz = O=C(OCc1ccccc1)*; CH2F = FC*

Tests used:
AD patients = details: cited from earlier work
[1] = system: adenine nucleotide translocator (ANT-1); details: in vitro; cited from earlier work
neuronal mitochondria = details: cited from earlier work; for intracellular ATP bioavailability: ATP synthesized by neuronal mitochondria
[2] = system: dbAMPc/NGF-differentiated human SH-SY5Y human neuroblastoma cells; test: Generation of the 20-22 kDa NH2 tau fragment in differentiated SH-SY5Y exposed to soluble AD brain extracts (Western blot); type: cell-based; details: 12 h with 1 mg/ml AD brain extract
Source text: FIG. 5. The soluble extracts from AD brain homogenates containing Aβ oligomers induce neurotoxicity and production of the NH2-derived 20-22 kDa tau fragment through the caspase-(s) activation in human differentiated SY5Y. A-B): Biochemical characterization of native Aβ oligomers enriched by crude soluble proteins extracts of AD and age-matched non-demented control brain prepared as reported by, which contained almost no Aβ monomers since the ability of these low-molecular weight species to pass readily through the 10 kDa cutoff filters under the conditions used here. Samples extracted from two different AD brain specimens were pooled and retentates—obtained by 10 kDa cutoff filters (Vivaspin 4 VSO403)—were added to the cell culture at a final concentration of 1 mg/ml. […] Unheated samples were applied on the gel in two different lanes and after transfer the membrane was cut in two equal parts and analyzed in parallel. […] Each data point is the mean±SE (bars) of five independent experiments and statistically significant differences were calculated by paired t-Student's test (*p<0.05; ***p<0.001). […] Each data point is the mean±SE (bars) of three independent experiments and statistically significant differences were calculated by paired t-Student's test (*p<0.05; **p<0.01; ***p<0.001). […]

[3] = target: T1, 20-22 kDa NH2-truncated tau fragment (human, UniProt P10636 26-547); test: co-immunoprecipitation from synaptosomes with CCP-NH2 tau as bait antibody
T1 construct: Endogenous fragment in human synaptosomes, mitochondria, CSF and STS-treated SH-SY5Y cells; Exact limits not proven; also called NH2htau; NH2 htau fragment
Experimental: A): Western blotting comparing synaptosomal proteins (500 μg) from ND, AD (ND, AD) subjects immunoprecipitated (IP) and probed (WB) with CCP—NH₂ tau (NH₂ aa 26-36 of human tau) antiserum. Total proteins extracts (70 μg unbound) from STS-treated (6hSY5Y) neuronal human SY5Y and from AD synaptosomal proteins (INPUT) were also loaded for lane and included as positive internal control of electrophoretic mobility and immunoprecipitation efficiency. It is noteworthy that a NH₂-tau fragment around 20-22 kDa (arrow), but not-full-length proteins running at 55-75 kDa(arrowheads), was efficiently immunoprecipitated by CCP—NH₂ tau antiserum on synaptic-enriched fractions from AD. The asterisk indicate immunoglobulin light chains in immunoprecipitates and no significant cross-reactions with human intact tau iso forms was found in total, un-precipitated proteins. B-F): In C), Western blotting analysis comparing synaptosomal proteins (500 μg) from ND, AD (ND, AD) subjects immunoprecipitated (IP) with CCP—NH₂ tau (NH₂ aa26-36 of human tau) antiserum and probed (WB) with ANT-1 antibody (the least C-terminal 12 amino acids of human neuronal ANT-1). […]
Next the authors analyzed whether ANT-1—the neuronal-specific isoform of ANT protein—was a mitochondrial target of the NH₂htau fragment.

T1 sequence (P10636 other isoform, or with tags, fused parts or gaps limits assumed): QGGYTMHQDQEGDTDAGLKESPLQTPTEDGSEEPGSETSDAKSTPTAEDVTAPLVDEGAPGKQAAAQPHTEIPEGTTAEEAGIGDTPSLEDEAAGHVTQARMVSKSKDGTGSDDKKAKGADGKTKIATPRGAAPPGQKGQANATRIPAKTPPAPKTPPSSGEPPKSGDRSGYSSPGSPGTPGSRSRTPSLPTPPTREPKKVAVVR

Question: For `Cc1ccc2c(c1)c1c(n2CCc2ccc(C)nc2)CCN(C)C1` [Dimebon], which “duration of improved cognitive performance in AD patients” value (AD patients) is on record?
Answer: 12-18 months

Question: Which “ANT-1-mediated ADP/ATP exchange” value [1] does the source give for “NH2-26-44 peptide: synthesized NH2-26-44 tau peptide, minimal active moiety of the NH2-26-230 human tau fragment (QGGYTMHQDQEGDTDAGLK)” here?
Answer: specifically inhibited the ANT-1-mediated ADP/ATP exchange in a non-competitive manner

Question: What about the “intracellular ATP bioavailability” value (neuronal mitochondria) of the same molecule?
Answer: reduces the intracellular ATP bioavailability

Question: And the “intracellular ATP bioavailability” value (neuronal mitochondria; listed as NH226-44 tau)?
Answer: reduced the intracellular bioavailability of ATP

Question: And the mitochondrial oxidative phosphorylation (neuronal mitochondria; in vitro)?
Answer: impairs the mitochondrial oxidative phosphorylation

Question: Which results are given for `COC(=O)C[C@H](NC(=O)[C@H](C)NC(=O)[C@@H](NC(=O)OCc1ccccc1)C(C)C)C(=O)CF` [Z-VADfmk] (Cbz-Val-Ala-Asp(OMe)-CH2F)?
Answer: appearance of 20-22 kDa NH2 tau fragment after pre-incubation with protease inhibitor ([2]; 100 μM Z-VADfmk or 20 μM MDL28170): significantly reduced the appearance of 20-22 kDa NH2 tau fragment; caspase-3 activation (cleaved caspase-3 Western blot) ([2]; 100 μM Z-VADfmk): blocking the caspase-3 activation

B1: MnSOD-II (enzyme, human, UniProt P04179 25-222, looked up)
chain: KHSLPDLPYDYGALEPHINAQIMQLHHSKHHAAYVNNLNVTEEKYQEALAKGDVTAQIALQPALKFNGGGHINHSIFWTNLSPNGGGEPKGELLEAIKRDFGSFDKFKEKLTAASVGVQGSGWGWLGFNKERGHLQIAACPNQDPLQGTTGLIPLLGIDVWEHAYYLQYKNVRPDYLKAIWNVINWENVTERYMACKK
notes: also called mitochondrial superoxide dismutase
Question: Does B1 bind [3]?
Answer: no binding
